Data on 17 compounds can be found in patent US5559141A, “Selective aromatase inhibiting 4(5)-imidazoles” (Orion-yhtyma Oy, priority 1991, dated 1996).

Molecules are shown by their SMILES.

The target of data set [1] is T1, human aromatase (Homo sapiens, UniProt P11511).
T1 construct: The enzyme was prepared from human placenta, which is rich of the enzyme; from tissue; host or cells: human placenta, microsomal fraction (100000×g precipitate), not further purified
T1 sequence (P11511 1-503): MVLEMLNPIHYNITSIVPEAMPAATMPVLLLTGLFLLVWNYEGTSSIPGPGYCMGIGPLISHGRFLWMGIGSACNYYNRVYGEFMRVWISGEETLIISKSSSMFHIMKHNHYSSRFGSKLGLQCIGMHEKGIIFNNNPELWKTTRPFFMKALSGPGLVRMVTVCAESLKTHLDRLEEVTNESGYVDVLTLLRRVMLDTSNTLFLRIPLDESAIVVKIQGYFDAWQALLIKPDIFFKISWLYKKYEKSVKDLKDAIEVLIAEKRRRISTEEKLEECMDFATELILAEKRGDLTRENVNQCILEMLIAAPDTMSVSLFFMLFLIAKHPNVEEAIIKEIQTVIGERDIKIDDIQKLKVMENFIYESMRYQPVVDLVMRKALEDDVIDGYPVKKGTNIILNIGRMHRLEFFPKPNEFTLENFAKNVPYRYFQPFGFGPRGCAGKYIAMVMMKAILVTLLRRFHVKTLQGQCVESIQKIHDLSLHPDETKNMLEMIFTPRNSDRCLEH
The data set can be described thus: in vitro inhibition of aromatase (human placental microsomes, 3H2O release). Type of data set: biochemical. As to conditions: 37° C., 40 min, read-out: AROMATASE IC-50 (converted).
Procedure: Human aromatase enzyme was used. The enzyme was prepared from human placenta, which is rich of the enzyme. Microsomal fraction (100000×g precipitate) was prepared by centrifugation. The enzyme preparation was used without further purification. […] The incubation was camed out at 37° C. for 40 min. Aromatization of 1,2[^3 H]-androstene-3,17-dione results in the production of ^3 H2 O. The tritiated water and the tritiated substrate are easily separated by a Sep-Pak™ minicolumn, which absorbs the steroid but allows free water elution. Radioactivity was counted by a liquid scintillation counter. Aromatase inhibition was evaluated by comparing the ^3 H2 O-radioactivity of inhibitor treated samples to controls containing no inhibitor. IC-50 values were calculated as concentrations which inhibited the enzyme activity 50%.

Data set [2] concerns the target desmolase. Description: inhibition of cholesterol side chain cleavage (SCC) activity (desmolase). Format: biochemical. As to conditions: mitochondrial fraction from human placenta or bovine adrenals, 37° C., 30 min; read-out: DESMOLASE IC-50.
Procedure: Incubations were carried out in 1,5 ml Eppendorf plastic tubes, and an Eppendorf shaker, centrifuge and incubator were used as a unit. […] Controls contained all the above substances but the enzyme preparation was inactivated prior to the incubation by the addition of 900 μof methanol. The mitochondrial fraction (1 mg protein) from human placenta or bovine adrenals was used as a source of enzyme. After 30 min incubation at 37° C., the reaction was terminated by the addition of 900 μl of methanol; 1500 dpm of marker ^14 C-4-pregnenolone was added to each incubate and the tubes were vigorously shaken. […] The column was washed with one ml of 75% methanol and then with 3 ml of 80% methanol. The 80% methanol eluate was run into the counting vial and 10 ml of scintillation liquid was added. Radioactivity was counted using a double-label program on a liquid scintillation counter (LKB RackBeta). Typical activities for placental and bovine adrenal enzyme preparation were 0,5-3 and 50-100 pmol pregnenolone formed/mg protein/min,respectively.
In inhibition experiments, the substance (final concentration range from 1 to 1000 μM) was added into incubation mixture in a volume of 10-20 μl, usually as methanol or ethanol solution. The same volume of the solute was added into control incubation vial.
The nature of data set [3]: acute toxicity, LD50, oral, mice. The settings on record: mouse, in vivo, young adult female NMRI-Stmin mice. As to the method:
Acute toxicity, LD50, was determined by using young adult female mice of NMRI-Stmin. The administration of the test compounds was oral.

Regarding `N#Cc1ccc(C(=CCc2c[nH]cn2)c2ccc(F)cc2)cc1` [Compound 4a, 4-[3-(4-cyanophenyl)-3-(4-fluorophenyl)-2-propenyl]-1H-imidazole], the IC50 was 0.65 µM in data set [1] and 62 µM in data set [2]. In the case of `N#Cc1ccc(C(=CCCc2ccc(F)cc2)c2c[nH]cn2)cc1` [Compound 3b, 4-[1-(4-cyanophenyl)-4-(4-fluorophenyl)-1-butenyl)-1H-imidazole], the IC50 in data set [2] came out at 26 µM. Take `N#Cc1ccc(C(CCc2c[nH]cn2)c2ccccc2)cc1` (stereo not shown) [Compound 1a, 4-[3-(4-cyanophenyl)-3-phenylpropyl]-1H-imidazole]: the IC50 in data set [2] came out at 14 µM. `N#Cc1ccc(C(CCc2c[nH]cn2)c2ccc(C(F)(F)F)cc2)cc1` (stereo not shown) [Compound 9a, 4-[3-(4-cyanophenyl)-3-(4-trifluoromethylphenyl)propyl]-1H-imidazole]: the IC50 in data set [2] is 64 µM.

On to `N#Cc1ccc(C(CCCc2ccc(F)cc2)c2c[nH]cn2)cc1` (stereo not shown) [Compound 2b, 4-[1-(4-cyanophenyl)-4-(4-fluorophenyl)butyl]-1H-imidazole], for which the IC50 in data set [2] was 20 µM. Regarding `N#Cc1ccc(C(=CCc2cncn2Cc2ccccc2)c2ccc(C#N)cc2)cc1` [Compound 5a, 1-benzyl-5-[3,3-bis(4-cyanophenyl)-2-propenyl]-1H-imidazole], the IC50 in data set [1] was 3.2 µM. On to `N#Cc1ccc(CC=C(c2ccc(F)cc2)c2c[nH]cn2)cc1` [Compound 8b, 4-[3-(4-cyanophenyl)-1-(4-fluorophenyl)-1-propenyl]-1H-imidazole], for which the IC50 in data set [1] is 1 µM.

As to `N#Cc1ccc(C(CCCc2cncn2Cc2ccccc2)c2ccc(C#N)cc2)cc1` [Compound 7a, 1-benzyl-5-[4,4-bis(4-cyanophenyl)butyl]-1H-imidazole], the values for the IC50 in data set [1] and in data set [2] were 5 µM and 22 µM, respectively. For `COc1ccc(C(CCc2c[nH]cn2)c2ccc(C#N)cc2)cc1` (stereo not shown) [Compound 10a, 4-[3-(4-cyanophenyl)-3-(4-methoxyphenyl)propyl]-1H-imidazole], the IC50 in data set [2] worked out at 33 µM. The LD50 is the dose at which mortality reaches 50%. Low readings indicate greater toxicity, high ones lower toxicity. `N#Cc1ccc(C(=CCc2ccc(F)cc2)c2c[nH]cn2)cc1` (single isomer, unassigned; isomer a) [Compound 6b, 4-[1-(4-cyanophenyl)-3-(4-fluorophenyl)-1-propenyl]-1H-imidazole, isomer a]: in data set [3], the LD50 was over 400 mg/kg. Moreover, in data set [2], the IC50 came out at 36 µM. For the compound `N#Cc1ccc(C(=CCc2c[nH]cn2)c2ccc(C#N)cc2)cc1` [Compound 8a, 4-[3,3-bis(4-cyanophenyl)-2-propenyl]-1H-imidazole], the IC50 in data set [1] is 0.97 µM; in data set [2], 33 µM. Take `N#Cc1ccc(C(=CCCc2ccc(F)cc2)c2c[nH]cn2)cc1` (single isomer, unassigned; isomer b) [Compound 5b, 4-[1-(4-cyanophenyl)-4-(4-fluorophenyl)-1-butenyl]-1H-imidazole, isomer b]: the IC50 in data set [2] is over 1000 µM. On to `N#Cc1ccc(C(=CCCc2ccc(F)cc2)c2c[nH]cn2)cc1` (single isomer, unassigned; isomer a) [Compound 4b, 4-[1-(4-cyanophenyl)-4-(4-fluorophenyl)-1-butenyl]-1H-imidazole, isomer a], for which the IC50 in data set [2] came out at 33 µM. On to `N#Cc1ccc(C(CCCc2c[nH]cn2)c2ccc(C#N)cc2)cc1` [Compound 6a, 4-[4,4-bis(4-cyanophenyl)butyl]-1H-imidazole], for which the IC50 in data set [2] came to 47 µM.

As for `N#Cc1ccc(C(CCCc2ccccc2)c2c[nH]cn2)cc1` (stereo not shown) [Compound 1b, 4-[1-(4-cyanophenyl)-4-phenylbutyl]-1H-imidazole], the IC50 in data set [2] is 12 µM. In data set [3], `N#Cc1ccc(C(CCc2c[nH]cn2)c2ccc(F)cc2)cc1` (stereo not shown) [Compound 3a, 4-[3-(4-cyanophenyl)-3-(4-fluorophenyl)propyl]-1H-imidazole] showed an LD50 of 210 mg/kg. The IC50 in data set [2] amounted to 43 µM. Take `N#Cc1ccc(C(CCc2c[nH]cn2)c2ccc(C#N)cc2)cc1` [Compound 2a, 4-[3,3-bis(4-cyanophenyl)propyl]-1H-imidazole]: the IC50 in data set [2] was determined as 36 µM.
